T/C data for twelve compounds are collected here from PubChem BioAssay AID328 (DTP/NCI, 2004).

The test relates to BDF1 mice, P388 leukemia ip, median survival T/C. Description: NCI In Vivo Anticancer Drug Screen. Data for tumor model P388 Leukemia (intraperitoneal) in B6D2F1 (BDF1) mice. The conditions noted are these: endpoint: median survival time, higher = longer survival. Put shortly:
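Antitumour effect was judged in vivo: survival in drug-treated mice, normalised to that of vehicle-dosed controls, gives the reported T/C.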

The mark [1] stands for this setting: dose: 25.0 mg/kg/injection, schedule: Q04DX003 (ip), vehicle: saline.
The mark [2] stands for this setting: dose: 50.0 mg/kg/injection, schedule: Q04DX003 (ip), vehicle: saline.
Where [3] appears, read: dose: 100.0 mg/kg/injection, schedule: Q01DX009 (ip), vehicle: saline.
[4] abbreviates: dose: 200.0 mg/kg/injection, schedule: Q01DX009 (ip), vehicle: saline.
Where [5] appears, read: dose: 50.0 mg/kg/injection, schedule: Q01DX009 (ip), vehicle: saline with Tween-80.
The mark [6] stands for this setting: dose: 100.0 mg/kg/injection, schedule: Q01DX009 (ip), vehicle: saline with Tween-80.
Where [7] appears, read: dose: 100.0 mg/kg/injection, schedule: Q01DX001 (ip), vehicle: saline.
[8] abbreviates: dose: 200.0 mg/kg/injection, schedule: Q01DX001 (ip), vehicle: saline.
Where [9] appears, read: dose: 400.0 mg/kg/injection, schedule: Q01DX001 (ip), vehicle: saline.
Where [10] appears, read: dose: 200.0 mg/kg/injection, schedule: Q01DX009 (ip), vehicle: saline with Tween-80.
[11] abbreviates: dose: 100.0 mg/kg/injection, schedule: Q04DX003 (ip), vehicle: Klucel (hydroxypropylcellulose) (HPC).
Setting [12] is: dose: 200.0 mg/kg/injection, schedule: Q04DX003 (ip), vehicle: Klucel (hydroxypropylcellulose) (HPC).

The structures appear in SMILES notation. Several values for one entry are separate records, joined by “and”; a condition that tells them apart may be missing. Identical values can stand only once. Toxic doses and inconclusive results are not listed.

For `Cc1cc(=O)c2cc(N(C)C)ccc2[nH]1`, the T/C runs as follows: (dose: 0.78 mg/kg/injection, schedule: Q01DX009 (ip), vehicle: water) 110 % of control; (dose: 1.56 mg/kg/injection, schedule: Q01DX009 (ip), vehicle: water) 100 % of control; (dose: 3.12 mg/kg/injection, schedule: Q01DX009 (ip), vehicle: water) 101 % of control; (dose: 6.25 mg/kg/injection, schedule: Q01DX009 (ip), vehicle: water) 93 % of control; (dose: 12.5 mg/kg/injection, schedule: Q01DX009 (ip), vehicle: water) 94 % of control and 116 % of control; (dose: 25.0 mg/kg/injection, schedule: Q01DX009 (ip), vehicle: water) 114 % of control. For the same compound, the T/C is, setting by setting: (dose: 50.0 mg/kg/injection, schedule: Q01DX009 (ip), vehicle: water) 91 % of control; (dose: 50.0 mg/kg/injection, schedule: Q04DX003 (ip), vehicle: water) 95 % of control; (dose: 100.0 mg/kg/injection, schedule: Q01DX009 (ip), vehicle: water) 107 % of control; (dose: 100.0 mg/kg/injection, schedule: Q04DX003 (ip), vehicle: water) 103 % of control; (dose: 200.0 mg/kg/injection, schedule: Q04DX003 (ip), vehicle: water) 103 % of control; (dose: 400.0 mg/kg/injection, schedule: Q01DX009 (ip), vehicle: water) 86 % of control. Further, for the setting “dose: 400.0 mg/kg/injection, schedule: Q04DX003 (ip), vehicle: water”, the T/C was 96 % of control.

For the compound `O=C(O)CS(=O)(=O)c1ccccc1`, the T/C under setting [1] is 109 % of control; the T/C (dose: 50.0 mg/kg/injection, schedule: Q01DX001 (ip), vehicle: other) is 95 % of control; the T/C (dose: 50.0 mg/kg/injection, schedule: Q01DX009 (ip), vehicle: saline) was 108 % of control; the T/C under setting [2] is 109 % of control; the T/C (dose: 100.0 mg/kg/injection, schedule: Q01DX001 (ip), vehicle: other) is 100 % of control; the T/C under setting [3] was 120 % of control. Also, the T/C was 100 % of control (dose: 100.0 mg/kg/injection, schedule: Q04DX003 (ip), vehicle: saline) and 108 % of control under setting [4].

Take `COC(=O)/C(N=Nc1cccc(C)c1)=C(\C)O`: the T/C reads like this: under setting [5], 97 % of control; under setting [6], 103 % of control.

`C=CN1CCCC1=O`: the T/C reads like this: under setting [7], 100 % of control; under setting [3], 90 % of control; under setting [8], 95 % of control; under setting [4], 118 % of control; under setting [9], 100 % of control; (dose: 400.0 mg/kg/injection, schedule: Q01DX009 (ip), vehicle: saline) 122 % of control.

For `CC(C)(C#N)Nc1ccccc1`, the T/C (dose: 3.13 mg/kg/injection, schedule: Q01DX009 (ip), vehicle: saline with Tween-80) was 90 % of control and 100 % of control; the T/C (dose: 6.25 mg/kg/injection, schedule: Q01DX009 (ip), vehicle: saline with Tween-80) is 90 % of control and 95 % of control; the T/C (dose: 12.5 mg/kg/injection, schedule: Q01DX009 (ip), vehicle: saline with Tween-80) was 95 % of control.

As to `CC(C)(C)C1COP(=O)(c2ccccc2)N(c2ccccc2)C1` (configuration not stated), the T/C is 92 % of control (dose: 50.0 mg/kg/injection, schedule: Q01DX005 (ip), vehicle: saline with Tween-80) and 91 % of control (dose: 100.0 mg/kg/injection, schedule: Q01DX005 (ip), vehicle: saline with Tween-80).

Regarding `CC1(C)CC(=O)N/C1=C\C1NC(=O)CC1(C)C` (configuration not stated), the T/C was 104 % of control under setting [6] and 109 % of control under setting [10].

As for `CCCCCCCCCCCCCCCCCCOC(=O)Cc1ccc(N(CCCl)CCCl)cc1`, the T/C is 123 % of control (dose: 50.0 mg/kg/injection, schedule: Q04DX002 (ip), vehicle: Klucel (hydroxypropylcellulose) (HPC)); 153 % of control (dose: 66.0 mg/kg/injection, schedule: Q01DX007 (ip), vehicle: Klucel (hydroxypropylcellulose) (HPC)); 165 % of control (dose: 100.0 mg/kg/injection, schedule: Q01DX007 (ip), vehicle: Klucel (hydroxypropylcellulose) (HPC)); 150 % of control (dose: 100.0 mg/kg/injection, schedule: Q01DX009 (ip), vehicle: Klucel (hydroxypropylcellulose) (HPC)); 104 % of control (dose: 100.0 mg/kg/injection, schedule: Q04DX002 (ip), vehicle: Klucel (hydroxypropylcellulose) (HPC)); 113 % of control under setting [11]. Besides, the T/C by setting is: (dose: 150.0 mg/kg/injection, schedule: Q01DX007 (ip), vehicle: Klucel (hydroxypropylcellulose) (HPC)) 173 % of control; (dose: 180.0 mg/kg/injection, schedule: Q04DX003 (ip), vehicle: saline with Tween-80) 100 % of control; under setting [12], 118 % of control; (dose: 400.0 mg/kg/injection, schedule: Q01DX009 (ip), vehicle: Klucel (hydroxypropylcellulose) (HPC)) 123 % of control; (dose: 400.0 mg/kg/injection, schedule: Q04DX002 (ip), vehicle: Klucel (hydroxypropylcellulose) (HPC)) 180 % of control; (dose: 400.0 mg/kg/injection, schedule: Q04DX003 (ip), vehicle: Klucel (hydroxypropylcellulose) (HPC)) 250 % of control and 159 % of control. For the same compound, the T/C reads like this: (dose: 400.0 mg/kg/injection, schedule: Q04DX003 (ip), vehicle: saline with Tween-80) 166 % of control; (dose: 600.0 mg/kg/injection, schedule: Q04DX003 (ip), vehicle: Klucel (hydroxypropylcellulose) (HPC)) 208 % of control; (dose: 600.0 mg/kg/injection, schedule: Q04DX003 (ip), vehicle: saline with Tween-80) 150 % of control.

In the case of `CC(C)(C)c1cccc(C(C)(C)C)c1OC(=O)NS(=O)(=O)c1ccccc1`, the T/C reads like this: (dose: 12.5 mg/kg/injection, schedule: Q04DX003 (ip), vehicle: saline) 111 % of control; under setting [1], 105 % of control; under setting [2], 100 % of control; (dose: 75.0 mg/kg/injection, schedule: Q04DX003 (ip), vehicle: Klucel (hydroxypropylcellulose) (HPC)) 104 % of control; (dose: 115.0 mg/kg/injection, schedule: Q04DX003 (ip), vehicle: Klucel (hydroxypropylcellulose) (HPC)) 104 % of control.

In the case of `COC(OC)C1(O)CC(C(C)/C=C(/C)C(CC(=O)N(C)c2ccccc2)OCc2ccccc2)OC(=O)N1` (configuration not stated), the T/C reads like this: (dose: 50.0 mg/kg/injection, schedule: Q04DX003 (ip), vehicle: Klucel (hydroxypropylcellulose) (HPC)) 99 % of control; under setting [11], 109 % of control; under setting [12], 118 % of control.

For `COc1ccc(C2c3cc4c(c(OC)c3CC3OCC(=O)C32)OCO4)cc1OC` (configuration not stated), the T/C is 163 % of control (dose: 44.8 mg/kg/injection, schedule: Q01DX010 (ip), vehicle: saline); 100 % of control (dose: 50.0 mg/kg/injection, schedule: Q01DX001 (ip), vehicle: saline); 172 % of control (dose: 89.5 mg/kg/injection, schedule: Q01DX010 (ip), vehicle: saline); 109 % of control under setting [7]; 172 % of control (dose: 100.0 mg/kg/injection, schedule: Q01DX010 (ip), vehicle: other); 100 % of control (dose: 179.0 mg/kg/injection, schedule: Q01DX010 (ip), vehicle: saline). The T/C is, setting by setting: (dose: 200.0 mg/kg/injection, schedule: Q01DX001 (ip), vehicle: other) 157 % of control; under setting [8], 104 % of control; (dose: 400.0 mg/kg/injection, schedule: Q01DX001 (ip), vehicle: other) 189 % of control; under setting [9], 122 % of control.

As for `CCCCCCC(NC(C)=O)C(C)=O` (configuration not stated), the T/C under setting [5] is 104 % of control, the T/C under setting [6] is 101 % of control and the T/C under setting [10] was 101 % of control.
